# In patent US7834013B2, “Aminophenylcyclopropyl carboxylic acids and derivatives as agonists to GPR40” (GlaxoSmithKline LLC, priority 2003, dated 2010):
# Structures can show the parent of a compound that is named as a salt.
# Target: T1, GPR40 (Homo sapiens, UniProt O14842)
# T1 construct: expressed in transfected cells
# Assay: GPR40 SAR Primary Assay (Elk-1/Gal4-luc+ reporter, luciferase activity)
# Assay type: cell-based
# Settings: stable GPR40 Elk-1/Gal4-luc+ CHO cell line, 5 hours incubation
# Procedure: An existing stable GPR40 Elk-1/Gal4-luc^+ CHO cell line generated by electroporation and functional cloning was used. Cells were maintained in a humidified incubator at 37° C./5% CO2 in complete media containing DMEM/F12 (Gibco, #11039-021), 5% FBS (Gibco, #16140-071) and 1% Glutamine (Gibco, #25030-081). Cell maintenance passages were made at 1:40 dilution every 3-4 days. Forty eight hours prior to assay, 15e6 cells were added to 200 ml of complete media then seeded into a 1200 cm^2-cell factory and returned to a humidified incubator at 37° C./5% CO2. 20 hours prior to assay, the growth media was removed and replaced with 200 ml of serum-free DMEM/F12 to quiesce background activity. At the time of assay, cells were harvested using non-enzymatic cell dissociation solution (Sigma, #C-5914), washed and counted. The 20 hour starve media was collected and used as condition media for cell assay plating. Cells were plated at a concentration of 10,000 cells/well in a total well volume of […] in black 96-well clear bottom polystyrene plates (CoStar, #3904). Test compounds were prepared as serial dilutions in 100% DMSO, then 1 ul was delivered to each well resulting in a final concentration of 1% DMSO. The plates were then returned to a humidified incubator at 37° C./5% CO2 for 5 hours. Following the incubation, the medium was replaced with 50 ul of a 1:1 mixture of SteadyGlo™ (Promega, #E2550) and dPBS containing 1 mM CaCl2 and 1 mM MgCl2. Plates were then sealed and subjected to dark adaptation at room temperature for 10 minutes. Luciferase activity was measured on a Packard TopCount™ microplate scintillation counter using 2 seconds per well count time.
# Data analysis was performed using standard methods.
# The Normalization Equation used was 100*(Unknown compound response−Background response)/(Agonist Max response−Background response).
# The Curve Fit Function used was y=((Vmax*x^n)/(K^n+x^n))+Y2.
# A percent max response and pEC50 were recorded for each compound. Although specific pEC50 values are given, these values should be considered exemplary. Those skilled in the art will appreciate the variability in performing and recording the biological activity assays that are herein described. The compounds of the present invention provide a pEC50 of at least 5.0.
# T1 sequence (O14842 whole entry): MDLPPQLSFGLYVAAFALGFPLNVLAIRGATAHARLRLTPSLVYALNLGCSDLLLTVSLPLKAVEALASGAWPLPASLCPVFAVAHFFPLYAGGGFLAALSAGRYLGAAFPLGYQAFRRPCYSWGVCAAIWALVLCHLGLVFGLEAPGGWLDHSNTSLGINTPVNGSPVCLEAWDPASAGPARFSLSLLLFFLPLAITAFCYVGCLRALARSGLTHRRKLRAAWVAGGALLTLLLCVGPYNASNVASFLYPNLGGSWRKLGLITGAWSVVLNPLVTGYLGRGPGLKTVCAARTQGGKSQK
row,Compound,EC50 [nM]
1,"CC(C)c1nc(-c2ccc(C(F)(F)F)cc2)sc1CNc1ccc([C@@H]2C[C@H]2C(=O)O)cc1 (racemic) [Example 14, Racemic-(trans)-2-{4-[({4-isopropyl-2-[4-(trifluoromethyl)phenyl]-1,3-thiazol-5-yl}methyl)amino]phenyl}cyclopropanecarboxylic Acid]",15.8
2,"Cc1nc(-c2ccc(C(F)(F)F)cc2)sc1CNc1ccc(C2CC2C(=O)O)cc1 (single isomer, unassigned; (+)) [Example 27, (+)-(Trans)-2-{4-[({4-methyl-2-[4-(trifluoromethyl)phenyl]-1,3-thiazol-5-yl}methyl)amino]phenyl}cyclopropanecarboxylic Acid]",3.98
3,"Cc1nc(-c2ccc(C(F)(F)F)cc2)sc1CNc1ccc(C2CC2C(=O)N[C@@H](C)c2ccccc2)cc1 (stereo partly drawn) [Example 40, Enantiomerically Enriched (trans)-2-{4-[({4-methyl-2-[4-(trifluoromethyl)phenyl]-1,3-thiazol-5-yl}methyl)amino]phenyl}-N-[(1S)-1-phenylethyl]cyclopropanecarboxamide]",50.1
4,"Cc1nc(-c2ccc(C(F)(F)F)cc2)sc1CNc1ccc([C@@H]2C[C@H]2C(=O)NC(C)C)cc1 (racemic) [Example 45, Racemic-(trans)-N-isopropyl-2-{4-[({4-methyl-2-[4-(trifluoromethyl)phenyl]-1,3-thiazol-5-yl}methyl)amino]phenyl}cyclopropanecarboxamide]",10
5,"Cc1nc(-c2ccc(C(F)(F)F)cc2)sc1CNc1ccc([C@@H]2C[C@H]2C(=O)NCc2ccncc2)cc1 (single isomer, unassigned) [Example 38, Enantiomerically Enriched (trans)-2-{4-[({4-methyl-2-[4-(trifluoromethyl)phenyl]-1,3-thiazol-5-yl}methyl)amino]phenyl}-N-(4-pyridinylmethyl)cyclopropanecarboxamide TFA Salt]",5.01
6,"CC(C)NC(=O)[C@@H]1C[C@H]1c1ccc(NCc2sc(-c3ccc(C(F)(F)F)cc3)nc2C(C)C)cc1 (racemic) [Example 52, Racemic-(trans)-N-isopropyl-2-{4-[({4-isopropyl-2-[4-(trifluoromethyl)phenyl]-1,3-thiazol-5-yl}methyl)amino]phenyl}cyclopropanecarboxamide]",15.8
7,"Cc1nc(-c2ccc(C(F)(F)F)cc2)sc1CNc1ccc([C@@H]2C[C@H]2C(=O)O)cc1 (racemic) [Example 13, Racemic-(trans)-2-{4-[({4-methyl-2-[4-(trifluoromethyl)phenyl]-1,3-thiazol-5-yl}methyl)amino]phenyl}cyclopropanecarboxylic Acid]",20
8,"Cc1nc(-c2ccc(C(F)(F)F)cc2)sc1CNc1ccc([C@@H]2C[C@H]2C(=O)N(C)C)cc1 (racemic) [Example 46, Racemic-(trans)-N,N-dimethyl-2-{4-[({4-methyl-2-[4-(trifluoromethyl)phenyl]-1,3-thiazol-5-yl}methyl)amino]phenyl}cyclopropanecarboxamide]",63.1
9,"Cc1nc(-c2ccc(C(F)(F)F)cc2)sc1CNc1ccc([C@@H]2C[C@H]2C(N)=O)cc1 (racemic) [Example 43, Racemic-(trans)-2-{4-[({4-methyl-2-[4-(trifluoromethyl)phenyl]-1,3-thiazol-5-yl}methyl)amino]phenyl}cyclopropanecarboxamide]",20
10,"Cc1nc(-c2ccc(C(F)(F)F)cc2)sc1CNc1ccc(C2CC2C(=O)O)cc1 (single isomer, unassigned; (-)) [Example 29, (−)-(cis)-2-{4-[({4-methyl-2-[4-(trifluoromethyl)phenyl]-1,3-thiazol-5-yl}methyl)amino]phenyl}cyclopropanecarboxylic Acid]",316
11,"Cc1nc(Oc2ccccc2)sc1CNc1ccc(C2CC2C(=O)O)cc1 (racemic) [Example 12, Racemic-(trans)-2-[4-({[4-methyl-2-(phenyloxy)-1,3-thiazol-5-yl]methyl}ammonium)-phenyl]cyclopropanecarboxylic Acid Trifluoroacetate]",398

# Now from value to compound:
row,EC50 [nM],Compound
1,6.31,"O=C(O)C1CC1c1ccc(NCc2cccc(Oc3cc(Cl)cc(Cl)c3)c2)cc1 (racemic) [Example 8, Racemic-(trans)-2-{4-[({3-[(3,5-dichlorophenyl)oxy]phenyl}methyl)ammonium]phenyl}-cyclopropanecarboxylic Acid Trifluoroacetate]"
2,7.94,"O=C(O)C1CC1c1ccc(NCc2cccc(Oc3cccc(C(F)(F)F)c3)c2)cc1 (racemic) [Example 9, Racemic-(trans)-2-(4-{[(3-{[3-(trifluoromethyl)phenyl]oxy}phenyl)methyl]ammonium}-phenyl)cyclopropanecarboxylic Acid Trifluoroacetate]"
3,7.94,"Cc1ccc(Oc2cccc(CNc3ccc([C@H]4C[C@@H]4C(=O)O)cc3)c2)cc1 [Example 34, (+)-(trans)-2-{4-[({3-[(4-methylphenyl)oxy]phenyl}methyl)amino]phenyl}cyclopropanecarboxylic Acid Trifluoroacetate]"
4,25.1,"O=C(O)[C@@H]1C[C@H]1c1ccc(NCc2ccc(-c3ccccc3)cc2)cc1 (racemic) [Example 2, Racemic-(trans)-2-{4-[(4-biphenylylmethyl)amino]phenyl}cyclopropanecarboxylic Acid]"
5,25.1,"O=C(O)[C@H]1C[C@@H]1c1ccc(NCc2cccc(Oc3cccc(C(F)(F)F)c3)c2)cc1 [Example 33, (+)-(trans)-2-(4-{[(3-{[3-(trifluoromethyl)phenyl]oxy}phenyl)methyl]amino}phenyl)cyclopropanecarboxy lic Acid]"
6,398,"O=C(O)C1CC1c1ccc(NCc2cccc(Oc3ccccc3)c2)cc1Cl (single isomer, unassigned; (+)) [Example 30a, (+)-(Trans)-2-[2-chloro-4-({[3-(phenyloxy)phenyl]methyl}amino)phenyl]cyclopropanecarboxylic Acid]"
7,15.8,"O=C(O)C1CC1c1ccc(NCc2cccc(Oc3ccc(Cl)cc3)c2)cc1 (racemic) [Example 6, Racemic-(trans)-2-{4-[({3-[(4-chlorophenyl)oxy]phenyl}methyl)ammonium]phenyl}-cyclopropanecarboxylic Acid Trifluoroacetate]"
8,20,"O=C(NCC1CC1)C1CC1c1ccc(NCc2cccc(Oc3ccccc3)c2)cc1 (stereo not drawn) [Example 54, Enantiomerically Enriched N-(cyclopropylmethyl)-2-{4-[(3-phenoxybenzyl)amino]phenyl}cyclopropanecarboxamide]"
9,10,"Cc1ccc(Oc2cccc(CNc3ccc(C4CC4C(=O)O)cc3)c2)cc1 (racemic) [Example 10, Racemic-(trans)-2-{4-[({3-[(4-methylphenyl)oxy]phenyl}methyl)ammonium]phenyl}-cyclopropanecarboxylic Acid Trifluoroacetate]"
10,20,"COc1ccc(Oc2cccc(CNc3ccc(C4CC4C(=O)O)cc3)c2)cc1 (racemic) [Example 5, Racemic-(trans)-2-(4-{[(3-{[4-(methyloxy)phenyl]oxy}phenyl)methyl]ammonium}phenyl)-cyclopropanecarboxylic Acid Trifluoroacetate]"
11,31.6,"COc1ccc(CNC(=O)[C@@H]2C[C@H]2c2ccc(NCc3cccc(Oc4ccccc4)c3)cc2)cc1 (racemic) [Example 48, Racemic-(trans)-N-(4-methoxybenzyl)-2-{4-[(3-phenoxybenzyl)amino]phenyl}cyclopropanecarboxamide]"
